The values below come from ChEMBL document CHEMBL1909294, “Translating clinical findings into knowledge in drug safety evaluation--drug induced liver injury prediction system (DILIps)” (PLoS Comput Biol, 2011).

The structures appear in SMILES notation.

The test system of data set [1] is Hepatotoxicity.
Data set [2] relates to Hepatotoxicity. This is another data set of the same source.
Data set [3] deals with Hepatotoxicity. The source holds these as a separate data set.
Data set [4] concerns Hepatotoxicity. The source holds these as a separate data set.
The subject of data set [5] is Hepatotoxicity. The source holds these as a separate data set.
Data set [6] relates to Hepatotoxicity. The source holds these as a separate data set.
The test system of data set [7] is Hepatotoxicity. This is another data set of the same source.
For data set [8], the system named is Hepatotoxicity. The source holds these as a separate data set.
In data set [9] the test system is Hepatotoxicity. The source holds these as a separate data set.
The subject of data set [10] is Hepatotoxicity. This is another data set of the same source.
Data set [11] relates to Hepatotoxicity. The source holds these as a separate data set.
The subject of data set [12] is Hepatotoxicity. The source holds these as a separate data set.
Data set [13] relates to Hepatotoxicity. The source holds these as a separate data set.
Data set [14] has as its system Hepatotoxicity. The source holds these as a separate data set.
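Throughout, for HepSE Combined Scores: combined hepatic side effect score as listed in the training data of the Drug Induced Liver Injury Prediction System (DILIps).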
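Throughout, for HepSE bilirubinemia: bilirubinemia hepatic side effect score drawn from the DILIps training data, a prediction system for drug-induced liver injury; call rule not given here.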
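Throughout, for HepSE cholecystitis: Cholecystitis-related hepatic side effect score drawn from the DILIps (drug-induced liver injury prediction) training data set; call rule not given here.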
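Throughout, for HepSE cholelithiasis: hepatic side effect score for cholelithiasis, drawn from the DILIps training data for predicting drug-induced liver injury; call rule not given here.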
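Throughout, for HepSE cirrhosis: cirrhosis hepatic side effect score taken from the DILIps (drug-induced liver injury prediction) training set; call rule not given here.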
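Throughout, for HepSE elevated liver function tests: hepatic side effect score for raised liver function tests, as recorded in the DILIps training set used for predicting drug-induced liver injury.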
Throughout, for HepSE hepatic failure: call rule not given here.
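Throughout, for HepSE hepatic necrosis: score of hepatic side effects for hepatic necrosis, drawn from the training data of DILIps, a prediction system for drug-induced liver injury; call rule not given here.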
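Throughout, for HepSE hepatitis: Hepatitis-related hepatic side effect score taken from the training data of DILIps, a prediction system for drug-induced liver injury; call rule not given here.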
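Throughout, for HepSE hepatomegaly: hepatic side effect score for hepatomegaly, taken from the training set of the DILIps drug-induced liver injury prediction system; call rule not given here.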
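Throughout, for HepSE jaundice: Jaundice-related hepatic side-effect score drawn from the training data of the DILIps (drug-induced liver injury prediction system); call rule not given here.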
Throughout, for HepSE liver disease: call rule not given here.
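Throughout, for HepSE liver fatty: hepatic side effect score for fatty liver, taken from the DILIps training set for predicting drug-induced liver injury; call rule not given here.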
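Throughout, for HepSE liver function tests abnormal: hepatic side effect score taken from the DILIps (drug-induced liver injury prediction system) training data, here covering abnormal liver function test findings.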

As for `OCCOCCN1CCN(C2=Nc3ccccc3Sc3ccccc32)CC1` [QUETIAPINE], the HepSE_cholecystitis in the data set with Hepatotoxicity [1] (Liver) is reported as 0. This compound had a HepSE_hepatic necrosis in the data set on Hepatotoxicity [2] (Liver) of 0. This compound came in with a HepSE_hepatomegaly in the data set on Hepatotoxicity [3] (Liver) of 0. For the same compound, the “HepSE_Combined Scores” value with Hepatotoxicity [4] (Liver) was 0. The same compound yielded a HepSE_hepatitis in the data set on Hepatotoxicity [5] (Liver) of 0. In addition, the HepSE_cholelithiasis in the data set on Hepatotoxicity [6] (Liver) amounted to 0. Moreover, in the data set on Hepatotoxicity [7] (Liver), the HepSE_hepatic failure is recorded as 0. For the same compound, the “HepSE_liver function tests abnormal” value in the data set with Hepatotoxicity [8] (Liver) was 0. In the data set on Hepatotoxicity [9] (Liver), this compound had a HepSE_bilirubinemia of 0. Moreover, the “HepSE_elevated liver function tests” value in the data set with Hepatotoxicity [10] (Liver) amounted to 0. In the data set with Hepatotoxicity [11] (Liver), this compound yielded a HepSE_cirrhosis of 0. In addition, in the data set with Hepatotoxicity [12] (Liver), the HepSE_jaundice was 0. In the data set on Hepatotoxicity [13] (Liver), this compound returned a HepSE_liver disease of 0. The same compound gave a HepSE_liver fatty in the data set with Hepatotoxicity [14] (Liver) of 0.
In the data set with Hepatotoxicity [1], `C=CC[C@@H]1/C=C(\C)C[C@H](C)C[C@H](OC)[C@H]2O[C@@](O)(C(=O)C(=O)N3CCCC[C@H]3C(=O)O[C@H](/C(C)=C/[C@@H]3CC[C@@H](O)[C@H](OC)C3)[C@H](C)[C@@H](O)CC1=O)[C@H](C)C[C@@H]2OC` [TACROLIMUS ANHYDROUS] returned a HepSE_cholecystitis of 0. The compound also came in with a HepSE_hepatic necrosis in the data set with Hepatotoxicity [2] of 1. Besides, in the data set with Hepatotoxicity [3], the HepSE_hepatomegaly is 0. Also, in the data set on Hepatotoxicity [4], the “HepSE_Combined Scores” value is 7. In addition, the HepSE_hepatitis with Hepatotoxicity [5] is 1. Also, the HepSE_cholelithiasis in the data set on Hepatotoxicity [6] turned out to be 0. In the data set on Hepatotoxicity [7], this compound returned a HepSE_hepatic failure of 0. Moreover, the “HepSE_liver function tests abnormal” value in the data set with Hepatotoxicity [8] is 1. Further, the HepSE_bilirubinemia in the data set on Hepatotoxicity [9] is given as 1. The “HepSE_elevated liver function tests” value in the data set on Hepatotoxicity [10] was 0. In the data set on Hepatotoxicity [11], this compound returned a HepSE_cirrhosis of 0. The compound further came in with a HepSE_jaundice with Hepatotoxicity [12] of 1. This compound yielded a HepSE_liver disease with Hepatotoxicity [13] of 1. In the data set with Hepatotoxicity [14], the HepSE_liver fatty is given as 1.
With `CC1(C)S[C@@H]2[C@H](NC(=O)[C@H](N)c3ccc(O)cc3)C(=O)N2[C@H]1C(=O)O` [AMOXICILLIN], the HepSE_cholecystitis with Hepatotoxicity [1] is 0. Moreover, the HepSE_hepatic necrosis with Hepatotoxicity [2] was determined as 0. The compound also had a HepSE_hepatomegaly with Hepatotoxicity [3] of 0. Also, the “HepSE_Combined Scores” value in the data set on Hepatotoxicity [4] is 2. The compound further displayed a HepSE_hepatitis in the data set with Hepatotoxicity [5] of 1. This compound also had a HepSE_cholelithiasis in the data set on Hepatotoxicity [6] of 0. The compound further showed a HepSE_hepatic failure in the data set on Hepatotoxicity [7] of 0. Moreover, the “HepSE_liver function tests abnormal” value in the data set with Hepatotoxicity [8] stood at 0. The compound also yielded a HepSE_bilirubinemia in the data set on Hepatotoxicity [9] of 0. In the data set with Hepatotoxicity [10], the “HepSE_elevated liver function tests” value was determined as 0. In addition, the HepSE_cirrhosis in the data set with Hepatotoxicity [11] came out at 0. In addition, in the data set on Hepatotoxicity [12], the HepSE_jaundice was found to be 1. In addition, the HepSE_liver disease in the data set with Hepatotoxicity [13] was determined as 0. The HepSE_liver fatty with Hepatotoxicity [14] is recorded as 0.
In the data set with Hepatotoxicity [1], `COc1cc(C(=O)NS(=O)(=O)c2ccccc2C)ccc1Cc1cn(C)c2ccc(NC(=O)OC3CCCC3)cc12` [ZAFIRLUKAST] had a HepSE_cholecystitis of 0. Also, the HepSE_hepatic necrosis with Hepatotoxicity [2] worked out at 0. Moreover, the HepSE_hepatomegaly with Hepatotoxicity [3] amounted to 0. The “HepSE_Combined Scores” value in the data set with Hepatotoxicity [4] is given as 4. Further, the HepSE_hepatitis in the data set with Hepatotoxicity [5] was 1. The compound further showed a HepSE_cholelithiasis in the data set with Hepatotoxicity [6] of 0. In addition, in the data set on Hepatotoxicity [7], the HepSE_hepatic failure is 1. Moreover, the “HepSE_liver function tests abnormal” value in the data set with Hepatotoxicity [8] is 0. The HepSE_bilirubinemia with Hepatotoxicity [9] came to 1. Further, the “HepSE_elevated liver function tests” value in the data set on Hepatotoxicity [10] came out at 1. Moreover, the HepSE_cirrhosis with Hepatotoxicity [11] is 0. For the same compound, the HepSE_jaundice in the data set on Hepatotoxicity [12] was determined as 0. The same compound returned a HepSE_liver disease in the data set on Hepatotoxicity [13] of 0. In the data set with Hepatotoxicity [14], this compound registered a HepSE_liver fatty of 0.
Consider `NCCc1ccc(O)c(O)c1` [DOPAMINE], for which the HepSE_cholecystitis with Hepatotoxicity [1] (Liver) was 0. The compound also yielded a HepSE_hepatic necrosis in the data set on Hepatotoxicity [2] (Liver) of 0. This compound also returned a HepSE_hepatomegaly in the data set with Hepatotoxicity [3] (Liver) of 0. Moreover, the “HepSE_Combined Scores” value with Hepatotoxicity [4] (Liver) turned out to be 0. The same compound displayed a HepSE_hepatitis in the data set on Hepatotoxicity [5] (Liver) of 0. This compound also came in with a HepSE_cholelithiasis in the data set with Hepatotoxicity [6] (Liver) of 0. Moreover, the HepSE_hepatic failure with Hepatotoxicity [7] (Liver) was found to be 0. Further, the “HepSE_liver function tests abnormal” value in the data set on Hepatotoxicity [8] (Liver) was found to be 0. This compound showed a HepSE_bilirubinemia with Hepatotoxicity [9] (Liver) of 0. The “HepSE_elevated liver function tests” value in the data set on Hepatotoxicity [10] (Liver) is on record as 0. In the data set on Hepatotoxicity [11] (Liver), this compound showed a HepSE_cirrhosis of 0. In addition, in the data set on Hepatotoxicity [12] (Liver), the HepSE_jaundice amounted to 0. In the data set with Hepatotoxicity [13] (Liver), this compound gave a HepSE_liver disease of 0. Moreover, in the data set with Hepatotoxicity [14] (Liver), the HepSE_liver fatty is 0.
